Test results reported in US20060019907A1, “Guggulsterone: an inhibitor of nuclear factor - kappaB and IkappaBalpha kinase activation and uses thereof” (Research Development Foundation, priority 2004, published 2006).

Columns and labels:
U937 cells [1] = assay: Thymidine incorporation assay; assay type: cell-based, human; details: 72 h
Method: Thymidine incorporation assay. The antiproliferative effects of guggulsterone were also monitored by the thymidine incorporation method. For this, 5000 cells in 100 μL medium were cultured in triplicate in 96-well plates in the presence or absence of guggulsterone for 72 hours. At 6 hours before the completion of experiment, cells were pulsed with 0.5 μCi (0.0185 MBq) ^3H-thymidine, and the uptake of ^3H-thymidine was monitored by means of a Matrix-9600 β-counter (Packard Instruments, Downers Grove, Ill.).

[2] = test system: inducible nitric oxide synthetase (iNOS); details: Meselhy et al., 2003; cited from earlier work
[3] = biological target: farnesoid X receptor (FXR) (Homo sapiens, UniProt Q96RI1); details: cited from earlier work
NF-κB = NF-κB activation by EMSA in H1299 cells; assay type: cell-based, human
Method: NF-κB Activation: To determine NF-κB activation, EMSA was carried out as previously described (Chaturvedi et al., 2000). Briefly, nuclear extracts prepared from cells (2×10^6/ml) treated with TNF were incubated with ^32P-end-labeled 45-mer double-stranded NF-κB oligonucleotide (8 μg of protein with […] of DNA) from the human immunodeficiency virus long terminal repeat, 5′-[…] GGCGTGG-3′ (SEQ ID NO:1) (boldface indicates NF-κB binding sites), for 15 min at 37° C. The DNA-protein complex formed was separated from free oligonucleotide on 6.6% native polyacrylamide gels. A double-stranded mutated oligonucleotide, 5′-[…]-3′ (SEQ ID NO:2), was used to examine the specificity of binding of NF-κB to the DNA. The specificity of binding was also examined by competition with the unlabeled oligonucleotide. For supershift assays, nuclear extracts prepared from TNF-treated cells were incubated with antibodies against either the p50 or the p65 subunit of NF-κB for 30 min at room temperature before the complex was analyzed by EMSA. The dried gels were visualized, and radioactive bands were quantitated using a PHOSPHORIMAGER™ (Molecular Dynamics, Sunnyvale, Calif.) using IMAGEQUANT™ software.

COX2 promoter = assay: COX-2 promoter-dependent reporter luciferase gene expression; assay type: cell-based, human; details: 0.1 nM TNF 24 hours
Method: COX-2 Promoter-dependent Reporter Luciferase Gene Expression: COX-2 promoter activity was examined as described elsewhere (Shishodia et al., 2003). To further determine the effect of guggulsterone on COX-2 promoter, […] cells were seeded at a concentration of 1.5×10^5 cells per well in six-well plates. After overnight culture, the cells in each well were transfected with 2 μg DNA consisting of COX-2 promoter-luciferase reporter plasmid, along with 6 μl of LIPOFECTAMINETM 2000 (Life Technologies, Inc.) according to the manufacturer's protocol. The COX-2 promoter (-375 to +59), amplified from human genomic DNA by using the primers [NT] (sense) (SEQ ID NO:3) and [NT] (antisense) (SEQ ID NO:4), was provided by Dr. Xiao-Chun Xu (M.D. Anderson Cancer Center). After a 6 hour exposure to the transfection mixture, the cells were incubated in medium containing guggulsterone for 12 hours. The cells were exposed to TNF (0.1 nM) for 24 hours and then harvested. Luciferase activity is measured by using the Promega luciferase assay system according to the manufacturer's protocol and detected by using […] 2010 (Analytical Luminescence Laboratory, San Diego, Calif.).

U937 cells [4] = assay: Annexin V and TUNEL assays; assay type: cell-based, human
Method: Annexin V Assay. One of the early indicators of apoptosis is the rapid translocation and accumulation of the membrane phospholipid phosphatidylserine from the cell's cytoplasmic interface to the extracellular surface. This loss of membrane asymmetry can be detected using the binding properties of annexin V. To detect apoptosis, annexin V antibody conjugated with the fluorescent dye FITC was used. Briefly, 1×10^6 cells were pretreated with 10 μM guggulsterone for various time points and then subjected to annexin V staining. Cells were washed, stained with FITC-conjugated anti-annexin V antibody, and then analyzed with a flow cytometer (FACSCalibur; BD Biosciences). TUNEL Assay. Apoptosis was also assessed by the terminal deoxynucleotidyl transferase-mediated deoxyuridine triphosphate nick end-labeling (TUNEL) method, which examines DNA strand breaks that occur during apoptosis, using an in situ cell death detection reagent (Roche Molecular Biochemicals, Mannheim, Germany). Assays were performed using 5×10^5 cells that were incubated with 10 μM guggulsterone for 24 h and then fixed with 4% paraformaldehyde, and permeabilized with 0.1% Triton-X 100 in 0.1% sodium citrate. After being washed, the cells were incubated with reaction mixture for 60 min at 37° C. Stained cells were analyzed with a flow cytometer (FACSCalibur).

tumor cells = assay: Antiproliferative effects against tumor cells (MTT); assay type: cell-based, human
Method: Cytotoxicity Assay: Cytotoxicity was assayed by the modified tetrazolium salt 3-(4-5-dimethylthiozol-2-yl)2-5-diphenyl-tetrazolium bromide (MTT) assay (Bharti et al., 2003). […] Thereafter, 0.025 ml of MTT solution (5 mg/ml in PBS) was added to each well. After a 2 hour incubation at 37° C., 0.1 ml of the extraction buffer (20% SDS, 50% dimethylformamide) was added. After an overnight incubation at 37° C., the optical densities at 570 nm were measured using a 96-well multiscanner autoreader (Dynatech MR5000), with the extraction buffer as blank. The percent cytotoxicity was determined as follows: (1−(A570 of test sample)/(A570 of control sample)×100%.
Cytotoxicity assay. The cytotoxic effects of guggulsterone was determined by the MTT uptake method. Briefly, 5000 cells were incubated with guggulsterone in triplicate in a 96-well plate at 37° C. MTT solution was then added to each well. After a 2-h incubation at 37° C., extraction buffer (20% SDS, 50% dimethylformamide) was added, the cells were incubated overnight at 37° C., and the OD was then measured at 570 nm using a 96-well multiscanner (Dynex Technologies, MRX Revelation, Chantilly, Va.).

[5] = humans; cited from earlier work
[6] = H1299, 4 h pre-incubation, 0.1 nM TNF 30 min

farnesoid X receptor (FXR), sequence (Q96RI1 whole entry, species assumed): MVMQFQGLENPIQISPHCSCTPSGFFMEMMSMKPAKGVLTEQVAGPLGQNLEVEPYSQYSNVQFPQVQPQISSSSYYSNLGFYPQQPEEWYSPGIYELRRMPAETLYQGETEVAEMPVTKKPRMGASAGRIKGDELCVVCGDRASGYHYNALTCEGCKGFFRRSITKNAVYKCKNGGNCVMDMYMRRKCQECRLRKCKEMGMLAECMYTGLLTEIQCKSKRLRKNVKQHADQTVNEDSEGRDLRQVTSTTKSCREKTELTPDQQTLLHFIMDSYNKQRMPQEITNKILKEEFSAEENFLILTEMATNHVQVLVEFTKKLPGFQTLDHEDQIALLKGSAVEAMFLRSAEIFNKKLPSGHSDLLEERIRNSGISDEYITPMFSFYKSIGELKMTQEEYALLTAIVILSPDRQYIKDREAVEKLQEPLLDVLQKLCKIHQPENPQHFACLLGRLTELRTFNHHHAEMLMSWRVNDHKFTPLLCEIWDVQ

In the case of `CC=C1C(=O)C[C@H]2[C@@H]3CCC4=CC(=O)CC[C@]4(C)[C@H]3CC[C@]12C` [guggulsterone, 4,17(20)-pregnadiene-3,16-dione], the “proliferation of U937 cells, 3H-thymidine incorporation” value (U937 cells [1]) is given as “inhibits proliferation in U937 cells”, the “iNOS expression induced by LPS in macrophages” value [2] is given as “inhibiting inducible nitric oxide synthetase (iNOS) expression” and the “action on bile acid receptor farnesoid X receptor (FXR)” value ([3]; Urizar et al., 2002, Wu et al.) is given as “antagonist”. For the same compound, the “expression of bile acid-activated genes” value ([3]; Urizar et al., 2002, Cui et al., 2003) was “decrease the expression of bile acid-activated genes”, the “minimum time required for complete inhibition of NF-κB activation” value (NF-κB; H1299, 50 μM guggulsterone, 0.1 nM TNF 30 min) was 4 h and the “TNF-mediated NF-κB activation, dose dependence” value (NF-κB; [6]) was “inhibited TNF-mediated NF-κB activation in a dose-dependent manner”. For the same compound, the “concentration of maximum inhibition of TNF-mediated NF-κB activation” value (NF-κB; [6]) was 50 µM, the “NF-κB activation induced by TNF, IL-1β, PMA, H2O2, cigarette smoke and okadaic acid (EMSA)” value (NF-κB; H1299 cells, 50 μM guggulsterone pre-incubated 4 h) was “suppressed the NF-κB activation induced by all these agents” and the “NF-κB activation by guggulsterone by itself” value (NF-κB; H1299 nuclear extracts, up to 50 μM) was “by itself did not activate NF-κB”. The “TNF-induced COX2 promoter activity” value (COX2 promoter) was “abolished the COX2 promoter activity in a dose-dependent manner”, the “number of Annexin V and TUNEL positive cells” value (U937 cells [4]) was “increased the number of Annexin V and TUNEL positive cells” and the “proliferation of head and neck, lung, melanoma, multiple myeloma, leukemia and breast cancer cells” value (tumor cells; 2000 cells in 0.1 ml, six days, MTT) was “suppressed the proliferation of a wide variety of cells”. For the same compound, the “proliferation of human leukemia, head and neck carcinoma, multiple myeloma, lung carcinoma, melanoma, breast carcinoma and ovarian cancer cell lines” value (tumor cells; Example 2) was “inhibits the proliferation”, the “proliferation of drug resistant cancer cells” value (tumor cells; STI-resistant K562, dexamethasone resistant MM1, doxorubicin resistant breast cancer cell lines) was “inhibited the proliferation of drug resistant cancer cells” and the pharmacological safety [5] was “pharmacologically safe agent in humans”.
